Data reported in PubChem BioAssay (NCI).
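All cell lines were grown in 96-well plates and treated with compound for 48 hours. TGI is the concentration that stops growth completely.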

Tests used:
Test in all cases: growth of human tumour cells (NCI), 48 h
[1] = tested on: HL-60(TB) leukemia
[2] = tested on: NCI/ADR-RES ovarian
[3] = tested on: A549 NSCLC
[4] = tested on: MDA-MB-435
[5] = tested on: PC-3 prostate
[6] = tested on: M14 melanoma
[7] = tested on: IGROV1 ovarian
[8] = tested on: BT-549 breast
[9] = tested on: HCT-15 colon
[10] = tested on: SF-268 CNS
[11] = tested on: RXF 393 renal
[12] = tested on: NCI-H522 lung
[13] = tested on: CCRF-CEM leukemia
[14] = tested on: HCC-2998 colon
[15] = tested on: SK-MEL-28 melanoma
[16] = tested on: DU-145 prostate
[17] = tested on: OVCAR-3 ovarian
[18] = tested on: SK-MEL-5 melanoma
[19] = tested on: SF-539 CNS
[20] = tested on: CAKI-1 renal
[21] = tested on: NCI-H23 lung
[22] = tested on: MCF7 breast
[23] = tested on: NCI-H460 lung
[24] = tested on: MDA-N
[25] = tested on: 786-0 renal
[26] = tested on: K-562 leukemia
[27] = tested on: ACHN renal
[28] = tested on: U251 CNS
[29] = tested on: SW-620 colon
[30] = tested on: UACC-62 melanoma
[31] = tested on: OVCAR-4 ovarian
[32] = tested on: SN12C renal
[33] = tested on: OVCAR-8 ovarian
[34] = tested on: HOP-62 NSCLC
[35] = tested on: MOLT-4 leukemia
[36] = tested on: HOP-92 NSCLC
[37] = tested on: SK-MEL-2 melanoma
[38] = tested on: TK-10 renal
[39] = tested on: SR leukemia
[40] = tested on: LOX IMVI melanoma
[41] = tested on: SNB-19 CNS
[42] = tested on: MDA-MB-231 breast
[43] = tested on: OVCAR-5 ovarian
[44] = tested on: HS 578T breast
[45] = tested on: UACC-257 melanoma
[46] = tested on: SF-295 CNS
[47] = tested on: UO-31 renal
[48] = tested on: KM12 colon
[49] = tested on: COLO 205 colon
[50] = tested on: EKVX NSCLC
[51] = tested on: HCT-116 colon
[52] = tested on: T-47D breast
[53] = tested on: A498 renal
[54] = tested on: HT29 colon
[55] = tested on: SNB-75 CNS
[56] = tested on: NCI-H226 lung
[57] = tested on: MALME-3M melanoma
[58] = tested on: RPMI-8226 leukemia
[59] = tested on: SK-OV-3 ovarian

Compound: CC(C)(C)NC(=O)C12C3C4C1C1C2C3C41C(=O)NC(C)(C)C (configuration not stated)
- TGI [1]: > 100 µM
- TGI [2]: > 100 µM
- TGI [3]: > 100 µM
- TGI [4]: > 100 µM
- TGI [5]: > 100 µM
- TGI [6]: > 100 µM
- TGI [7]: > 100 µM
- TGI [8]: > 100 µM
- TGI [9]: > 100 µM
- TGI [10]: > 100 µM
- TGI [11]: > 100 µM
- TGI [12]: > 100 µM
- TGI [13]: > 100 µM
- TGI [14]: > 100 µM
- TGI [15]: > 100 µM
- TGI [16]: > 100 µM
- TGI [17]: > 100 µM
- TGI [18]: > 100 µM
- TGI [19]: > 100 µM
- TGI [20]: > 100 µM
- TGI [21]: > 100 µM
- TGI [22]: > 100 µM
- TGI [23]: > 100 µM
- TGI [24]: > 100 µM
- TGI [25]: > 100 µM
- TGI [26]: > 100 µM
- TGI [27]: > 100 µM
- TGI [28]: > 100 µM
- TGI [29]: > 100 µM
- TGI [30]: > 100 µM
- TGI [31]: > 100 µM
- TGI [32]: > 100 µM
- TGI [33]: > 100 µM
- TGI [34]: > 100 µM
- TGI [35]: > 100 µM
- TGI [36]: 71.6 µM
- TGI [37]: > 100 µM
- TGI [38]: > 100 µM
- TGI [39]: > 100 µM
- TGI [40]: > 100 µM
- TGI [41]: > 100 µM
- TGI [42]: > 100 µM
- TGI [43]: > 100 µM
- TGI [44]: > 100 µM
- TGI [45]: > 100 µM
- TGI [46]: > 100 µM
- TGI [47]: > 100 µM
- TGI [48]: > 100 µM
- TGI [49]: > 100 µM
- TGI [50]: > 100 µM
- TGI [51]: > 100 µM
- TGI [52]: > 100 µM
- TGI [53]: > 100 µM
- TGI [54]: > 100 µM

Compound: O=[As](O)(O)c1ccc2nc3cc([As](=O)(O)O)ccc3nc2c1
- TGI [2]: > 100 µM
- TGI [3]: > 100 µM
- TGI [4]: > 100 µM
- TGI [5]: > 100 µM
- TGI [6]: > 100 µM
- TGI [55]: > 100 µM
- TGI [56]: > 100 µM
- TGI [7]: > 100 µM
- TGI [8]: > 100 µM
- TGI [9]: > 100 µM
- TGI [10]: > 100 µM
- TGI [11]: > 100 µM
- TGI [12]: > 100 µM
- TGI [57]: > 100 µM
- TGI [14]: > 100 µM
- TGI [15]: > 100 µM
- TGI [16]: > 100 µM
- TGI [17]: > 100 µM
- TGI [18]: > 100 µM
- TGI [20]: > 100 µM
- TGI [21]: > 100 µM
- TGI [22]: > 100 µM
- TGI [23]: > 100 µM
- TGI [24]: > 100 µM
- TGI [25]: > 100 µM
- TGI [26]: > 100 µM
- TGI [27]: > 100 µM
- TGI [28]: > 100 µM
- TGI [29]: > 100 µM
- TGI [30]: > 100 µM
- TGI [31]: > 100 µM
- TGI [32]: > 100 µM
- TGI [33]: > 100 µM
- TGI [34]: > 100 µM
- TGI [35]: > 100 µM
- TGI [36]: > 100 µM
- TGI [37]: > 100 µM
- TGI [38]: > 100 µM
- TGI [39]: > 100 µM
- TGI [40]: > 100 µM
- TGI [41]: > 100 µM
- TGI [42]: > 100 µM
- TGI [43]: > 100 µM
- TGI [44]: > 100 µM
- TGI [45]: > 100 µM
- TGI [46]: > 100 µM
- TGI [47]: > 100 µM
- TGI [48]: > 100 µM
- TGI [50]: > 100 µM
- TGI [51]: > 100 µM
- TGI [52]: > 100 µM
- TGI [53]: > 100 µM
- TGI [54]: > 100 µM

Compound: COc1ccc(/C=C2/CCS(=O)(=O)c3ccc(C)cc3C2=O)cc1OC
- TGI [1]: 51.5 µM
- TGI [2]: 46.5 µM
- TGI [3]: > 100 µM
- TGI [4]: 71.6 µM
- TGI [5]: 58.9 µM
- TGI [6]: > 100 µM
- TGI [55]: 57.2 µM
- TGI [56]: 70.8 µM
- TGI [7]: 22.4 µM
- TGI [8]: 35.6 µM
- TGI [9]: 20.3 µM
- TGI [10]: > 100 µM
- TGI [11]: 29.6 µM
- TGI [13]: 69.8 µM
- TGI [14]: 19.6 µM
- TGI [15]: 56.5 µM
- TGI [16]: 15.1 µM
- TGI [17]: > 100 µM
- TGI [19]: > 100 µM
- TGI [20]: 47.5 µM
- TGI [21]: 27.3 µM
- TGI [22]: > 100 µM
- TGI [23]: 25.8 µM
- TGI [24]: 49.5 µM
- TGI [25]: 27.7 µM
- TGI [26]: > 100 µM
- TGI [27]: 27.4 µM
- TGI [28]: 42 µM
- TGI [29]: > 100 µM
- TGI [30]: 22.7 µM
- TGI [31]: 66.9 µM
- TGI [32]: 73.9 µM
- TGI [33]: 48.1 µM
- TGI [34]: > 100 µM
- TGI [35]: 49.6 µM
- TGI [36]: 9.55 µM
- TGI [58]: 37.6 µM
- TGI [37]: 60.9 µM
- TGI [38]: 37.5 µM
- TGI [39]: 58.1 µM
- TGI [40]: 20.4 µM
- TGI [41]: 33.3 µM
- TGI [42]: 39.1 µM
- TGI [43]: > 100 µM
- TGI [44]: 73.2 µM
- TGI [45]: 25.4 µM
- TGI [46]: 36 µM
- TGI [47]: 20.1 µM
- TGI [48]: 23 µM
- TGI [49]: 28.4 µM
- TGI [50]: 40.3 µM
- TGI [51]: 21.8 µM
- TGI [59]: > 100 µM
- TGI [52]: 45.1 µM
- TGI [54]: 27.6 µM

Compound: COC(=O)c1c(C(=O)OC)c2c3ccccc3n(C)c2c2c1c1ccccc1n2C
- TGI [2]: > 100 µM
- TGI [3]: > 100 µM
- TGI [4]: > 100 µM
- TGI [5]: > 100 µM
- TGI [6]: > 100 µM
- TGI [55]: > 100 µM
- TGI [56]: > 100 µM
- TGI [7]: > 100 µM
- TGI [8]: > 100 µM
- TGI [9]: > 100 µM
- TGI [12]: > 100 µM
- TGI [13]: > 100 µM
- TGI [57]: > 100 µM
- TGI [14]: > 100 µM
- TGI [15]: > 100 µM
- TGI [16]: > 100 µM
- TGI [18]: > 100 µM
- TGI [19]: > 100 µM
- TGI [20]: > 100 µM
- TGI [21]: > 100 µM
- TGI [22]: > 100 µM
- TGI [23]: > 100 µM
- TGI [24]: > 100 µM
- TGI [25]: > 100 µM
- TGI [26]: > 100 µM
- TGI [27]: > 100 µM
- TGI [28]: > 100 µM
- TGI [29]: > 100 µM
- TGI [30]: > 100 µM
- TGI [31]: > 100 µM
- TGI [32]: > 100 µM
- TGI [33]: > 100 µM
- TGI [34]: 75 µM
- TGI [35]: > 100 µM
- TGI [36]: > 100 µM
- TGI [58]: > 100 µM
- TGI [37]: > 100 µM
- TGI [38]: > 100 µM
- TGI [39]: > 100 µM
- TGI [40]: > 100 µM
- TGI [41]: 83.3 µM
- TGI [42]: > 100 µM
- TGI [43]: > 100 µM
- TGI [44]: > 100 µM
- TGI [45]: > 100 µM
- TGI [46]: > 100 µM
- TGI [47]: > 100 µM
- TGI [48]: > 100 µM
- TGI [49]: > 100 µM
- TGI [50]: > 100 µM
- TGI [51]: > 100 µM
- TGI [59]: > 100 µM
- TGI [52]: > 100 µM
- TGI [53]: > 100 µM
- TGI [54]: > 100 µM
